Measured values taken from US9695155B2, “Herbicidal substituted pyrimidinyloxy benzene compounds” (E. I. DU PONT DE NEMOURS AND COMPANY, priority 2013, dated 2017).

Tests used:
[1] = tested on: barnyardgrass; assay: Test A preemergence; type: in vivo, Echinochloa crus-galli; details: 0 to 100 scale where 0 is no effect and 100 is complete control
Method in brief: (§1)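 Scoring: eye-based comparison with untreated controls, 0 for no effect through 100 for complete control, at about day 10. Treatments: directed soil spray preemergence; foliar spray postemergence on 2–10 cm plants at the one- to two-leaf stage. Medium: loam soil with sand.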

[2] = tested on: barnyardgrass; assay: Test A postemergence; type: in vivo, Echinochloa crus-galli; details: 0 to 100 scale where 0 is no effect and 100 is complete control
Method in brief: as §1

[3] = tested on: pigweed; assay: Test A postemergence; type: in vivo, Amaranthus retroflexus; details: 0 to 100 scale where 0 is no effect and 100 is complete control
Method in brief: as §1

[4] = tested on: rice; assay: Test B flooded paddy test; type: in vivo, Oryza sativa; details: Oryza sativa; Flood, 250 g ai/ha; 0 to 100 scale where 0 is no effect and 100 is complete control; read-out: Plant response rating, Rice
Method in brief: (§2)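 Greenhouse flooded-pot test: compounds dosed into 3 cm standing water over 2-leaf plants, flood held constant. Rated visually after 13–15 days on 0–100 (complete control = 100); a dash marks no test result.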

[5] = tested on: sedge, umbrella; assay: Test B flooded paddy test; type: in vivo, Cyperus difformis; details: Flood, 250 g ai/ha; 0 to 100 scale where 0 is no effect and 100 is complete control
Method in brief: as §2

[6] = tested on: barnyardgrass; assay: Test B flooded paddy test; type: in vivo, Echinochloa crus-galli; details: Echinochloa crus-galli; Flood, 250 g ai/ha; 0 to 100 scale where 0 is no effect and 100 is complete control; read-out: Plant response rating, Barnyardgrass
Method in brief: as §2

[7] = tested on: large (Lg) crabgrass; assay: Test C postemergence; type: in vivo, Digitaria sanguinalis; details: Digitaria sanguinalis, post-emergence
Method in brief: (§3)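 Sown in loam/sand → sprayed pre-emergence; or grown to 1–4 leaves in peat mix → sprayed post-emergence. Same solvent/surfactant formulation both ways. Greenhouse 13–15 d. Score 0–100 visual.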

[8] = tested on: giant foxtail; assay: Test C postemergence; type: in vivo, Setaria faberii; details: Setaria faberi, post-emergence
Method in brief: as §3

[9] = tested on: lambsquarters; assay: Test C postemergence; type: in vivo, Chenopodium album; details: Chenopodium album, post-emergence
Method in brief: as §3

[10] = tested on: morningglory; assay: Test C postemergence; type: in vivo, Ipomoea coccinea; details: Ipomoea, post-emergence
Method in brief: as §3

[11] = tested on: yellow nutsedge; assay: Test C postemergence; type: in vivo, Cyperus esculentus; details: Cyperus, post-emergence
Method in brief: as §3

[12] = tested on: barnyardgrass; assay: Test C postemergence; type: in vivo, Echinochloa crus-galli; details: Echinochloa crus-galli, post-emergence
Method in brief: as §3

[13] = tested on: wild oat; assay: Test C postemergence; type: in vivo, Avena fatua; details: Avena fatua, post-emergence
Method in brief: as §3

[14] = tested on: chickweed; assay: Test C postemergence; type: in vivo, Stellaria media; details: Stellaria media, post-emergence
Method in brief: as §3

N#Cc1cccc(Oc2ncc(Cl)cn2)c1-n1cc(SC(F)(F)F)cn1 [Compound 134, 3-[(5-chloro-2-pyrimidinyl)oxy]-2-[4-(trifluoromethylthio)-1-pyrazolyl]benzonitrile]
Plant response rating, Barnyardgrass ([1]; 125 g ai/ha): 70
Barnyardgrass plant response rating ([1]; 500 g ai/ha): 100
Barnyardgrass plant response rating ([2]; 125 g ai/ha): 80
Plant response rating, Barnyardgrass ([2]; 500 g ai/ha): 90
Pigweed plant response rating ([3]; 125 g ai/ha): 100
Plant response rating, Pigweed ([3]; 500 g ai/ha): 100
plant injury at 250 g/ha [4]: 0%
Plant response rating, Sedge, Umbrella [5]: 30
pest or weed control at 250 g/ha [6]: 0%
pest or weed control at 16 g/ha ([7]; 16 g ai/ha, postemergence, 0 is no effect, 100 is complete control, read-out: Plant response rating (0 to 100), Crabgrass, Large): 5%
pest or weed control at 125 g/ha ([7]; 125 g ai/ha, postemergence, visual rating, scale 0 to 100 (0 no effect, 100 complete control), read-out: Plant response rating, Crabgrass, Large): 15%
pest or weed control at 62 g/ha ([7]; Postemergence, 62 g ai/ha, scale 0 to 100 (0 no effect, 100 complete control), read-out: Plant response rating, Crabgrass, Large): 10%
pest or weed control at 16 g/ha ([8]; 16 g ai/ha, postemergence, 0 is no effect, 100 is complete control, read-out: Plant response rating (0 to 100), Foxtail, Giant): 5%
pest or weed control at 125 g/ha ([8]; 125 g ai/ha, postemergence, visual rating, scale 0 to 100 (0 no effect, 100 complete control), read-out: Plant response rating, Foxtail, Giant): 5%
pest or weed control at 62 g/ha ([8]; Postemergence, 62 g ai/ha, scale 0 to 100 (0 no effect, 100 complete control), read-out: Plant response rating, Foxtail, Giant): 5%
pest or weed control at 16 g/ha ([9]; 16 g ai/ha, postemergence, 0 is no effect, 100 is complete control, read-out: Plant response rating (0 to 100), Lambsquarters): 5%
pest or weed control at 125 g/ha ([9]; 125 g ai/ha, postemergence, visual rating, scale 0 to 100 (0 no effect, 100 complete control), read-out: Plant response rating, Lambsquarters): 65%
pest or weed control at 62 g/ha ([9]; Postemergence, 62 g ai/ha, scale 0 to 100 (0 no effect, 100 complete control), read-out: Plant response rating, Lambsquarters): 75%
pest or weed control at 16 g/ha ([10]; 16 g ai/ha, postemergence, 0 is no effect, 100 is complete control, read-out: Plant response rating (0 to 100), Morningglory): 70%
pest or weed control at 125 g/ha ([10]; 125 g ai/ha, postemergence, visual rating, scale 0 to 100 (0 no effect, 100 complete control), read-out: Plant response rating, Morningglory): 95%
pest or weed control at 62 g/ha ([10]; Postemergence, 62 g ai/ha, scale 0 to 100 (0 no effect, 100 complete control), read-out: Plant response rating, Morningglory): 85%
pest or weed control at 16 g/ha ([11]; 16 g ai/ha, postemergence, 0 is no effect, 100 is complete control, read-out: Plant response rating (0 to 100), Nutsedge, Yellow): 0%
pest or weed control at 125 g/ha ([11]; 125 g ai/ha, postemergence, visual rating, scale 0 to 100 (0 no effect, 100 complete control), read-out: Plant response rating, Nutsedge, Yellow): 10%
pest or weed control at 62 g/ha ([11]; Postemergence, 62 g ai/ha, scale 0 to 100 (0 no effect, 100 complete control), read-out: Plant response rating, Nutsedge, Yellow): 10%
pest or weed control at 16 g/ha ([12]; 16 g ai/ha, postemergence, 0 is no effect, 100 is complete control, read-out: Plant response rating (0 to 100), Barnyardgrass): 0%
pest or weed control at 125 g/ha ([12]; 125 g ai/ha, postemergence, visual rating, scale 0 to 100 (0 no effect, 100 complete control), read-out: Plant response rating, Barnyardgrass): 10%
pest or weed control at 31 g/ha ([12]; Postemergence, 31 g ai/ha, scale 0 to 100 (0 no effect, 100 complete control), 13 to 15 days, read-out: Plant response rating, Barnyardgrass): 5%
pest or weed control at 62 g/ha ([12]; Postemergence, 62 g ai/ha, scale 0 to 100 (0 no effect, 100 complete control), read-out: Plant response rating, Barnyardgrass): 5%
pest or weed control at 16 g/ha ([13]; 16 g ai/ha, postemergence, 0 is no effect, 100 is complete control, read-out: Plant response rating (0 to 100), Oat, Wild): 5%
pest or weed control at 125 g/ha ([13]; 125 g ai/ha, postemergence, visual rating, scale 0 to 100 (0 no effect, 100 complete control), read-out: Plant response rating, Oat, Wild): 10%
pest or weed control at 62 g/ha ([13]; Postemergence, 62 g ai/ha, scale 0 to 100 (0 no effect, 100 complete control), read-out: Plant response rating, Oat, Wild): 10%
pest or weed control at 16 g/ha ([14]; 16 g ai/ha, postemergence, 0 is no effect, 100 is complete control, read-out: Plant response rating (0 to 100), Chickweed): 45%
pest or weed control at 125 g/ha ([14]; 125 g ai/ha, postemergence, visual rating, scale 0 to 100 (0 no effect, 100 complete control), read-out: Plant response rating, Chickweed): 80%
pest or weed control at 62 g/ha ([14]; Postemergence, 62 g ai/ha, scale 0 to 100 (0 no effect, 100 complete control), read-out: Plant response rating, Chickweed): 55%
